Assay results from BindingDB's records for doi:10.1021/acsmedchemlett.7b00164 (Shenyang Pharmaceutical University, 2017).

Test: Inhibition of PDGFR in mouse NIH/3T3 cells assessed as reduction in recombinant human PDGF-BB-induced cell proliferation after 42 hrs by cell titer 96 aqueous one solution based assay

`COC(=O)c1ccc2c(c1)NC(=O)/C2=C(\Nc1ccc(N2C(=O)CC[C@H]2CN2CCN(C)CC2)cc1)c1ccccc1` and `COC(=O)c1ccc2c(c1)NC(=O)/C2=C(\Nc1ccc(N2C(=O)CC[C@@H]2CN2CCN(C)CC2)cc1)c1ccccc1` are within 1.5-fold of each other in IC50: 110 nM for the first, 97 nM for the second.

`COC(=O)c1ccc2c(c1)NC(=O)/C2=C(\Nc1ccc2c(c1)N(C(=O)Cn1cncn1)CC2)c1ccccc1` and `COC(=O)c1ccc2c(c1)NC(=O)/C2=C(\Nc1ccc2c(c1)N(C(=O)Cn1cccn1)CC2)c1ccccc1` are within 1.5-fold of each other in IC50: 100 nM for the first, 110 nM for the second.

`COC(=O)c1ccc2c(c1)NC(=O)/C2=C(\Nc1ccc(N2CCC(CN3CCN(C)CC3)C2=O)cc1)c1ccccc1` (centres undefined) and `COC(=O)c1ccc2c(c1)NC(=O)/C2=C(\Nc1ccc(N(C)C(=O)CN2CCN(C)CC2)cc1)c1ccccc1` [BIBF-1120] are within 1.5-fold of each other in IC50: 110 nM for the first, 85 nM for the second.

Going from `COC(=O)c1ccc2c(c1)NC(=O)/C2=C(\Nc1ccc2c(c1)N(C(=O)CN1CCOCC1)CC2)c1ccccc1` to `COC(=O)c1ccc2c(c1)NC(=O)/C2=C(\Nc1ccc2c(c1)N(C(=O)CN1CCCC1=O)CC2)c1ccccc1`, the IC50 rises from 100 nM to 260 nM (2.6-fold). The first is the more potent here.

In the case of `COC(=O)c1ccc2c(c1)NC(=O)/C2=C(\Nc1ccc2c(c1)N(C(=O)CN1CC(C)OC(C)C1)CC2)c1ccccc1` (centres undefined), the IC50 is reported as 150 nM.
